In patent publication US20250074943A1, “DLL3 BINDING PEPTIDES AND USES THEREOF” (AMGEN INC., priority 2021, published 2025):
Bridge positions count the residues as written; N and C are the ends. Peptide text beside a SMILES is read from it. * marks the point of attachment. X13 = NCCCOCCOCCOCCCNC(=O)CCC(=O)NCCCOCCOCCOCCCNC(=O)CCC(=O)NCCCC[C@H](NC(=O)CCC(=O)NCCCOCCOCCOCCCN*)C(N)=O; X11 = NCCCC[C@H](NC(=O)CCC(=O)NCCCOCCOCCOCCCN*)C(N)=O

Tests used:
[1] = biological target: T1, cell-surface hDLL3 (CHO cells) (Homo sapiens, UniProt Q9NYJ7); experiment: Flow cytometry binding of fluorescence labelled peptides; assay type: cell-based; settings: 100 nM AF647-labelled peptide; FIG. 1
T1 construct: expressed in transfected cells; host or cells: CHO (CHO-huDLL3)
T1 sequence (Q9NYJ7 27-618): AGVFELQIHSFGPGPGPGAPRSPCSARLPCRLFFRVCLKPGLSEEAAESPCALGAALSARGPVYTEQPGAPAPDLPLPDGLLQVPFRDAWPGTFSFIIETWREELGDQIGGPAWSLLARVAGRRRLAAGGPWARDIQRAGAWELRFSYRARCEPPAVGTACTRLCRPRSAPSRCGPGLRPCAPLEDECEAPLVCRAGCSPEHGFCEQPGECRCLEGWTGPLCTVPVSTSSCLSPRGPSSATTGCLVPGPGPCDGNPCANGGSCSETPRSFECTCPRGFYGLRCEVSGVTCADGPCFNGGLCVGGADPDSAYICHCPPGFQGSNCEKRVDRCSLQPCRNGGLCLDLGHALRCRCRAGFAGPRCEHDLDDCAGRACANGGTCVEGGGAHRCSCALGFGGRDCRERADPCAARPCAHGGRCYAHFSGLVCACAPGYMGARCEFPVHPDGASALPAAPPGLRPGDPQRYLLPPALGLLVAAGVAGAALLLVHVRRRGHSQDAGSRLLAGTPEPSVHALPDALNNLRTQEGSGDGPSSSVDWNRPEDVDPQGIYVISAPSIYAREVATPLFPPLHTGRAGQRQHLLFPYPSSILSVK
Procedure: HEK293-huDLL3, CHO-huDLL3 and the corresponding parental cell lines were detached with EDTA 2.5 mM and re-suspended at 1.8×10^6 cells/ml in FACS buffer (1×PBS, 2% FBS), distributed at 500 μl per testing tube and pelleted 5 min at 1300 rpm in a Heraeus Multifuge X3R centrifuge. […] After 1 hour incubation at room temperature, cells were washed once with FACS buffer, centrifuged and re-suspended in FACS buffer/1% formaldehyde. Samples were acquired on a FACS ARIA flow cytometer (Becton Dickinson) and data analysed by FACS Express software.

[2] = biological target: T2, DLL3 (Homo sapiens, UniProt Q9NYJ7); experiment: Binding of peptides with linkers and/or fluorescent agent to DLL3 (BLI, SPR; Table 6)
T2 construct: The recombinant DLL3 ectodomain (rhDLL3-Fc) was biotinylated; Fc
T2 sequence (Q9NYJ7 27-492 limits assumed): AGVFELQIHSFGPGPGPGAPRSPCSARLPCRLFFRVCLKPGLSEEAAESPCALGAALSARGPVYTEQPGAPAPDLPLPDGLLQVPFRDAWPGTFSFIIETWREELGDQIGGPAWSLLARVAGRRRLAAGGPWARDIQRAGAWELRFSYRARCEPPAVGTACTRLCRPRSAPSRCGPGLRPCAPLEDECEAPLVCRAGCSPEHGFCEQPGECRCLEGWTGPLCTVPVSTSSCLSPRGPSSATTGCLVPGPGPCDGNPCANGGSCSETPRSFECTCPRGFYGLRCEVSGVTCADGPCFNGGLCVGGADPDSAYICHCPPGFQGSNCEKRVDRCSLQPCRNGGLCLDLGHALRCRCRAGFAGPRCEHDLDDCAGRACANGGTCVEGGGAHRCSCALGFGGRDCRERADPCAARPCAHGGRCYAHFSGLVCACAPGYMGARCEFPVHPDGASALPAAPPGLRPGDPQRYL
Procedure: Binding kinetic assays were performed using Bio-layer interferometry (BLI) technology. The recombinant DLL3 ectodomain (rhDLL3-Fc) was biotinylated using EZ-Link Sulfo-NHS-LC-LC-Biotin Kit according to the manufacturer's protocol (Pierce by Thermo Fisher Scientific). The recombinant protein was incubated with an excess of NHS-LC-LC Biotin ester, in a molar ratio of 1:3 (protein: biotin), at 25° C. for 90 min. The un-reacted biotin ester was removed by subsequent buffer exchange on 0.5 ml Zeba spin desalting columns 7K MWCO (Pierce by Thermo Fisher Scientific).
The off-rate screening of the peptides was done using a Biacore T200 instrument (Cytiva, Sweden). […] Peptides were diluted at 300 nM in PBS-P+1× buffer (Cytiva, Sweden) supplemented with 1% DMSO and 0.1% BSA, then injected over the ligand for five minutes at 30 μl/min, finally dissociation allowed for 1 h. Sensorgrams were analyzed by Biacore T200 Evaluation Software 3.0 (Cytiva, Sweden): specific binding was obtained by subtracting unspecific binding to naked biosensors and a zero analyte concentration made of binding assay buffer (double referencing). Kinetic parameters of koff were measured using a global fitting according to 1:1 Langmuir binding isotherm equation.

Row | binding to cells expressing hDLL3 [1] | Kd [2] [nM] | RT [2] | SMILES
1 | binding | 11.6 |  | CC(C)[C@H](NC(=O)[C@@H](NC(=O)[C@H](CCC(=O)O)NC(=O)[C@H](C)N)[C@@H](C)O)C(=O)N[C@@H](CCC(=O)O)C(=O)N[C@@H](Cc1ccccc1)C(=O)N[C@@H](Cc1c[nH]c2ccccc12)C(=O)NCC(=O)N[C@H]1CSSC[C@@H](C(=O)N[C@@H](Cc2c[nH]c3ccccc23)C(=O)N[C@@H](Cc2c[nH]c3ccccc23)C(=O)NCCCOCCOCCOCCCNC(=O)CCC(=O)N[C@@H](CCCCn2nnc3c2-c2ccccc2CN(C(=O)CCNC(=O)CCCCC[N+]2=C(/C=C/C=C/C=C4/N(CCCS(=O)(=O)O)c5ccc(S(=O)(=O)O)cc5C4(C)C)C(C)(CCCS(=O)(=O)O)c4cc(S(=O)(=O)[O-])ccc42)c2ccccc2-3)C(N)=O)NC(=O)[C@H]([C@@H](C)O)NC(=O)[C@H](CCC(=O)O)NC(=O)[C@H](CC(N)=O)NC(=O)CNC(=O)[C@H](Cc2c[nH]c3ccccc23)NC(=O)[C@H]([C@@H](C)O)NC(=O)CNC(=O)[C@H]([C@@H](C)O)NC1=O (stereo partly drawn) [PepSP1215]
2 |  | 29 ± 16 | 189.3 ± 73^ | CC(=O)N[C@@H](C)C(=O)N[C@@H](CCC(=O)O)C(=O)N[C@H](C(=O)N[C@H](C(=O)N[C@@H](CCC(=O)O)C(=O)N[C@@H](Cc1ccccc1)C(=O)N[C@@H](Cc1c[nH]c2ccccc12)C(=O)N[C@@H](Cc1c[nH]c2ccccc12)C(=O)N[C@H]1CSSC[C@@H](C(=O)N[C@H](C(=O)N[C@@H](Cc2c[nH]c3ccccc23)C(=O)NCC(=O)NCC(=O)NCCCOCCOCCOCCCNC(=O)CCC(=O)N[C@@H](CCCCN)C(N)=O)[C@@H](C)O)NC(=O)[C@H]([C@@H](C)O)NC(=O)[C@H](Cc2c[nH]c3ccccc23)NC(=O)[C@H](CC(N)=O)NC(=O)[C@H](CCC(=O)O)NC(=O)[C@H](CO)NC(=O)[C@H](CC(N)=O)NC(=O)CNC(=O)[C@H](CC(N)=O)NC1=O)C(C)C)[C@@H](C)O [PepSP1324] (Ac-AETVEFWWCNGNSENWTCTWGG-X11; disulfide 9-18 (inferred))
3 |  | 42 ± 8 | 198.9 ± 41.1 | CC(=O)N[C@@H](C)C(=O)N[C@@H](CCC(=O)O)C(=O)N[C@H](C(=O)N[C@H](C(=O)N[C@@H](CCC(=O)O)C(=O)N[C@@H](Cc1ccccc1)C(=O)N[C@@H](Cc1c[nH]c2ccccc12)C(=O)N[C@@H](Cc1c[nH]c2ccccc12)C(=O)N[C@H]1CSSC[C@@H](C(=O)N[C@H](C(=O)N[C@@H](Cc2c[nH]c3ccccc23)C(=O)NCC(=O)NCC(=O)NCCCOCCOCCOCCCNC(=O)CCC(=O)N[C@@H](CCCCNC(=O)CCC(=O)NCCCOCCOCCOCCCNC(=O)CCC(=O)NCCCOCCOCCOCCCN)C(N)=O)[C@@H](C)O)NC(=O)[C@H]([C@@H](C)O)NC(=O)[C@H](Cc2c[nH]c3ccccc23)NC(=O)[C@H](CC(N)=O)NC(=O)[C@H](CCC(=O)O)NC(=O)[C@H](CO)NC(=O)[C@H](CC(N)=O)NC(=O)CNC(=O)[C@H](CC(N)=O)NC1=O)C(C)C)[C@@H](C)O [PepSP1342] (Ac-AETVEFWWCNGNSENWTCTWGG-X13; disulfide 9-18 (inferred))
